The subject of data set [1] is sub-genomic HCV NS3-NS5B replicon genotype 1a (Huh-7 cells). The experiment in a line: Replicon luciferase cell based assay, genotype 1a. Particulars: Huh-7 genotype 1a luciferase replicon, 48 hours, read-out: EC50 GT 1a. Here is the method:
(§1) 150 μL of a 1 mM stock solution in DMSO of each test compound was transferred into in the first column of a 96 well, V-bottom microplate, to give 200 times the top concentration of the required dilution series. Aliquots of 50 μL were added to each well of the remaining rows containing 100 μL of DMSO giving a 1:3 dilution series over ten points. Columns 11 and 12 contained DMSO only for the positive and negative control, respectively. 10 μL of each well were transferred into 90 μL of DMEM medium (Invitrogen #41965-039) supplemented with 5% v/v foetal calf serum, 1% v/v non-essential amino acids solution, 100 units/ml penicillin, 100 μg/ml streptomycin and 2 mM L-glutamine to give 20 times the top concentration of the required dilution series.
(§2) Suspensions were prepared from cultures of Huh-7 cells stably transfected with sub-genomic HCV NS3-NS5B replicons of either genotype 1b (the ET subline described by Pietschmann, T., Lohmann, V., Kaul, A., Krieger, N., Rinck, G., Rutter, G., Strand, D. & Bartenschlager, R., Journal of Virology, 2002, 76, 4008-4021), genotype 1a (subline 1.19 constructed in-house from H77 SG-Neo containing adaptive mutations P1496L and S2204I as described by Blight, K. J., McKeating, J. A., Marcotrigiano, J., and Rice, C. M. Journal of Virology, 2003, 77, 3180-3190), genotype 1b C316N (constructed in-house by site directed mutagenesis of the NS5B gene of the ET subline), or genotype 1a C316Y (constructed in-house by site directed mutagenesis of the NS5B gene of H77 SG-Neo containing adaptive mutations P1496L and S2204I as described by Blight, K. J., McKeating, J. A., Marcotrigiano, J., and Rice, C. M. Journal of Virology, 2003, 77, 3180-3190) linked to a firefly luciferase reporter gene. Monolayers nearing confluency were stripped from growth flasks with versene-trypsin solution and the cells re-suspended in assay medium comprising DMEM. 95 μL of suspension containing either 15,000 cells (genotype 1b luciferase replicon) or 20,000 cells (genotype 1a luciferase replicon) were added to all wells of a 96 well plate (Perkin Elmer, #6005686), except medium controls in column 12 of the assay plate. The cell suspension was dosed with 5 μL of compound solution and the plate was incubated for 48 hours at 37° C. in a 5% CO2 atmosphere.
(§3) For toxicity the cells in one plate were treated with Cell Titer Glo (Promega, #G7573). A solution of Cell Titer Glo was prepared according to the manufacturer's instructions, and 100 μL added to each well. The plate was then read for luminescence on an Envision. For potency a solution of Steady Glo (Promega, #E2550) was prepared according to the manufacturer's instructions and 100 μL added to each well. After a twenty minute incubation the plate was then read for luminescence on an Envision.
(§4) Potency: The luminescence values from all compound-free wells containing cells were averaged to obtain a positive control value. The mean luminescence value from the compound-free wells that had received no cells was used to provide the negative (background) control value. The readings from the wells at each compound concentration were taken and after the subtraction of the mean background from all values, were expressed as a percentage of the positive control signal. The quantifiable and specific reduction of luciferase signal in the presence of a drug is a direct measure of replicon inhibition. BioAssay Enterprise (CamebridgeSoft) with the XC50 module for curve fitting was used to plot the curve of percentage inhibition against compound concentration and derive the 50% inhibitory concentration (EC50) for the compound. EC50 is the effective concentration, that is, the concentration of compound where 50% maximal effect is observed. The EC50 values of two identical plates were averaged. The results are presented in Table 1 as EC50 for genotypes (GT) 1a, 1b, 1b 316N and 1a 316Y.

Data set [2] concerns sub-genomic HCV NS3-NS5B replicon genotype 1b (Huh-7 cells). The experiment in a line: Replicon luciferase cell based assay, genotype 1b. Particulars: Hepatitis C virus; Huh-7 genotype 1b luciferase replicon, 48 hours; read-out: EC50 GT1b. Here is the method:
as §1, §2, §3, §4

The subject of data set [3] is sub-genomic HCV NS3-NS5B replicon genotype 1b C316N (Huh-7 cells). In words: Replicon luciferase cell based assay, genotype 1b C316N. Particulars: read-out: EC50 1b 316N. Here is the method:
as §1, §2, §3, §4

Data set [4] concerns sub-genomic HCV NS3-NS5B replicon genotype 1a C316Y (Huh-7 cells). In words: Replicon luciferase cell based assay, genotype 1a C316Y. The note with it: Hepatitis C virus, Huh-7, 48 h, read-out: EC50 1a 316Y. Here is the method: as §1, §2, §3, §4
Data set [5] can be described thus: In vivo pharmacokinetic study, rat. The protocol:
In vivo pharmacokinetic studies were conducted in mouse, rat, dog, or cynomolgus monkey to determine clearance, oral exposure and bioavailability (% F). Solution doses of the compounds were administered intravenously through catheters or orally by gavage. Blood samples were collected at the following time points (n=2 or 3/route/species): 0.083 (IV only), 0.167 (IV only), 0.25, 0.5, 1, 2, 4, 6, 8, 12, and 24 h. Non-compartmental pharmacokinetic parameters were determined using Phoenix Winnonlin 6.1 (Pharsight, Mountain View, Calif.). Bioavailability of the oral formulation of each compound were calculated as the ratio of the oral dose normalized AUCinf to the intravenous dose normalized AUCinf. Results are expressed in Table 2.

Read-outs that look alike come from different tables or passages of the source.

Turning to `CNC(=O)c1c(-c2ccc(F)cc2)oc2cc(N(c3ccc(C4CCB(O)O4)c(Cl)c3)S(C)(=O)=O)c(C3CC3)cc12` (single isomer, unassigned; enantiomer 1) [Example 28, 6-(N-(3-Chloro-4-(2-hydroxy-1,2-oxaborolan-5-yl)phenyl)methylsulfonamido)-5-cyclopropyl-2-(4-fluorophenyl)-N-methylbenzofuran-3-carboxamide, enantiomer 1], the EC50 lay within 1 to 10 nM in data set [1] (Hepatitis C virus); 1 to 10 nM in data set [2]; 11 to 200 nM in data set [3] (Hepatitis C virus, Huh-7, 48 h); 11 to 200 nM in data set [4].
With `CNC(=O)c1c(-c2ccc(F)cc2)oc2cc(N(c3ccc(C4CCB(O)O4)c(Cl)c3)S(C)(=O)=O)c(C3CC3)cc12` (single isomer, unassigned; enantiomer 2) [Example 29, 6-(N-(3-Chloro-4-(2-hydroxy-1,2-oxaborolan-5-yl)phenyl)methylsulfonamido)-5-cyclopropyl-2-(4-fluorophenyl)-N-methylbenzofuran-3-carboxamide, enantiomer 2], the EC50 in data set [1] lay within 1 to 10 nM; in data set [3] (Huh-7 genotype 1b C316N luciferase replicon, 48 hours), 11 to 200 nM.
`CNC(=O)c1c(-c2ccc(Cl)cc2)oc2cc(N(Cc3ccc(B(O)O)c(F)c3)S(C)(=O)=O)c(C3CC3)cc12` [C]: in data set [5] (Rat), the DNAUC was 434 ng·h/mL/mg/kg and the “T 1/2” value worked out at 1.8 H. The same molecule yielded a clearance in data set [5] (rat, blood, intravenous) of 15.6 mL/min/kg. In addition, the Vd in data set [5] (rat, blood, intravenous, read-out: Vss) is 1.1 L/kg. The bioavailability in data set [5] (rat, blood, oral) was found to be 40%.
For `CNC(=O)c1c(-c2ccc(Cl)cc2)oc2cc(N(c3ccc(B(O)O)c(Cl)c3)S(C)(=O)=O)c(C3CC3)cc12` [Example 2, (2-Chloro-4-(N-(2-(4-chlorophenyl)-5-cyclopropyl-3-(methylcarbamoyl)benzofuran-6-yl)methylsulfonamido)phenyl)boronic acid], the EC50 in data set [1] (Hepatitis C virus) is 1 to 10 nM; in data set [2] it was 1 to 10 nM; in data set [3] (Hepatitis C virus, Huh-7, 48 h), 1 to 10 nM; in data set [4] it was 1 to 10 nM.
In the case of `CNC(=O)c1c(-c2ccc(F)cc2)oc2cc(N(c3ccc(B(O)O)cc3)S(C)(=O)=O)c(C3CC3)cc12` [Example 3, 4-(N-(5-cyclopropyl-2-(4-fluorophenyl)-3-(methylcarbamoyl)benzofuran-6-yl)methylsulfonamido)phenylboronic acid], the EC50 in data set [1] (Hepatitis C virus) is 1 to 10 nM; in data set [2], 1 to 10 nM; in data set [3] (Hepatitis C virus, Huh-7, 48 h) it was 1 to 10 nM; in data set [4] it was 200 to 1000 nM.
On to `CNC(=O)c1c(-c2ccc(F)cc2)oc2cc(N(c3cccc(B(O)O)c3)S(C)(=O)=O)c(C3CC3)cc12` [Example 4, 3-(N-(5-cyclopropyl-2-(4-fluorophenyl)-3-(methylcarbamoyl)benzofuran-6-yl)methylsulfonamido)phenylboronic acid], for which the EC50 in data set [1] (Hepatitis C virus) is 1 to 10 nM; in data set [2], 1 to 10 nM; in data set [3] (Hepatitis C virus, Huh-7, 48 h) it was 11 to 200 nM; in data set [4] it was over 1000 nM.
As to `CNC(=O)c1c(-c2ccc(F)cc2)oc2cc(N(c3ccc(B(O)O)c(F)c3)S(C)(=O)=O)c(C3CC3)cc12` [Example 5, 4-(N-(5-cyclopropyl-2-(4-fluorophenyl)-3-(methylcarbamoyl)benzofuran-6-yl)methylsulfonamido)-2-fluorophenylboronic acid], the EC50 was 1 to 10 nM in data set [1] (Hepatitis C virus); 1 to 10 nM in data set [2]; 1 to 10 nM in data set [3] (Hepatitis C virus, Huh-7, 48 h); 11 to 200 nM in data set [4].
Turning to `CNC(=O)c1c(-c2ccc(F)cc2)oc2cc(N(c3ccc(B(O)O)cc3F)S(C)(=O)=O)c(C3CC3)cc12` [Example 6, 4-(N-(5-cyclopropyl-2-(4-fluorophenyl)-3-(methylcarbamoyl)benzofuran-6-yl)methylsulfonamido)-3-fluorophenylboronic acid], the EC50 in data set [1] (Hepatitis C virus) was 1 to 10 nM; in data set [2] it was 1 to 10 nM; in data set [3] (Hepatitis C virus, Huh-7, 48 h), 11 to 200 nM; in data set [4], over 1000 nM.
With `CNC(=O)c1c(-c2ccc(Cl)cc2)oc2cc(N(c3ccc(B(O)O)c(F)c3)S(C)(=O)=O)c(C3CC3)cc12` [Example 7, 4-(N-(2-(4-chlorophenyl)-5-cyclopropyl-3-(methylcarbamoyl)benzofuran-6-yl)methylsulfonamido)-2-fluorophenylboronic acid], the EC50 in data set [1] (Hepatitis C virus) fell in the range of 1 to 10 nM; in data set [2], 1 to 10 nM; in data set [3] (Hepatitis C virus, Huh-7, 48 h), 1 to 10 nM; in data set [4], 11 to 200 nM.
For `CNC(=O)c1c(-c2ccc(F)cc2)oc2cc(N(c3ccc(B(O)O)cn3)S(C)(=O)=O)c(C3CC3)cc12` [Example 8, 6-(N-(5-cyclopropyl-2-(4-fluorophenyl)-3-(methylcarbamoyl)benzofuran-6-yl)methylsulfonamido)pyridin-3-ylboronic acid], the EC50 in data set [1] (Hepatitis C virus) was over 1000 nM; in data set [2], over 1000 nM; in data set [3] (Hepatitis C virus, Huh-7, 48 h), over 1000 nM.
Turning to `CNC(=O)c1c(-c2ccc(F)cc2)oc2cc(N(c3ccc(B(O)O)c(C(F)F)c3)S(C)(=O)=O)c(C3CC3)cc12` [Example 9, (4-(N-(5-cyclopropyl-2-(4-fluorophenyl)-3-(methylcarbamoyl)benzofuran-6-yl)methylsulfonamido)-2-(difluoromethyl)phenyl)boronic acid], the EC50 in data set [1] (Hepatitis C virus) was in the range of 1 to 10 nM; in data set [2] it was 1 to 10 nM; in data set [3] (Hepatitis C virus, Huh-7, 48 h) it was 1 to 10 nM; in data set [4] it was 11 to 200 nM.
For `CS(=O)(=O)N(c1ccc(B(O)O)c(Cl)c1)c1cc2oc(-c3ccc(Cl)cc3)c(C(=O)O)c2cc1C1CC1` [Example 13, 6-(N-(4-borono-3-chlorophenyl)methylsulfonamido)-2-(4-chlorophenyl)-5-cyclopropylbenzofuran-3-carboxylic acid], the EC50 in data set [1] (Hepatitis C virus) was over 1000 nM; in data set [2] it was over 1000 nM; in data set [3] (Hepatitis C virus, Huh-7, 48 h), over 1000 nM.
On to `CNC(=O)c1c(-c2ccc(F)cc2)oc2cc(N(c3ccc(OCB(O)O)cc3)S(C)(=O)=O)c(C3CC3)cc12` [Example 18, ((4-(N-(5-Cyclopropyl-2-(4-fluorophenyl)-3-(methylcarbamoyl)benzofuran-6-yl)methylsulfonamido)phenoxy)methyl)boronic acid], for which the EC50 in data set [2] lay within 1 to 10 nM; in data set [3] (Hepatitis C virus, Huh-7, 48 h) it was 11 to 200 nM; in data set [4] it was 11 to 200 nM.
Turning to `CNC(=O)c1c(-c2ccc(F)cc2)oc2cc(N(c3ccc4c(c3)CCOB4O)S(C)(=O)=O)c(C3CC3)cc12` [Example 30], the EC50 in data set [1] (Hepatitis C virus) was in the range of 1 to 10 nM; in data set [2] it was 1 to 10 nM; in data set [3] (Hepatitis C virus, Huh-7, 48 h) it was 1 to 10 nM.

Values taken from patent US9682999B2, “Benzofuran compounds for the treatment of hepatitis C virus infections” (Glaxo Group Limited, priority 2011, dated 2017).
